Source: BindingDB's records for doi:10.1161/01.cir.102.23.2836 (Nih, 2000)
Several values for one entry are separate records, joined by “and”; a condition that tells them apart may be missing. Equal values may be shown once.

Assays:
[1] = target: T1, 5-hydroxytryptamine receptor 2C (Rattus norvegicus, UniProt P08909)
T1 sequence (P08909 whole entry): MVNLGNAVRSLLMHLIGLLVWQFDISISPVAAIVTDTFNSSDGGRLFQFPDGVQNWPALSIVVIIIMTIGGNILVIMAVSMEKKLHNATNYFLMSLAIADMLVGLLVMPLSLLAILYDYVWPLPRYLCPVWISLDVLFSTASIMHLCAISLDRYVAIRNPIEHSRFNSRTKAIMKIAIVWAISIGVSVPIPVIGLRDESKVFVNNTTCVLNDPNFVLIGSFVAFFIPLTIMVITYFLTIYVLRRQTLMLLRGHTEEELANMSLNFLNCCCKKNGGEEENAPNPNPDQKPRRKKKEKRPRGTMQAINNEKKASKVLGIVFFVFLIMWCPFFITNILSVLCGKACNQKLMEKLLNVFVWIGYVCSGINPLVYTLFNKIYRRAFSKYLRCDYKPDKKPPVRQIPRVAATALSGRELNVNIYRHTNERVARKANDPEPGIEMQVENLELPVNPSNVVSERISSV

[2] = target: 5-hydroxytryptamine receptor 2B (Homo sapiens, UniProt P41595)
Chain of 5-hydroxytryptamine receptor 2B (P41595 whole entry): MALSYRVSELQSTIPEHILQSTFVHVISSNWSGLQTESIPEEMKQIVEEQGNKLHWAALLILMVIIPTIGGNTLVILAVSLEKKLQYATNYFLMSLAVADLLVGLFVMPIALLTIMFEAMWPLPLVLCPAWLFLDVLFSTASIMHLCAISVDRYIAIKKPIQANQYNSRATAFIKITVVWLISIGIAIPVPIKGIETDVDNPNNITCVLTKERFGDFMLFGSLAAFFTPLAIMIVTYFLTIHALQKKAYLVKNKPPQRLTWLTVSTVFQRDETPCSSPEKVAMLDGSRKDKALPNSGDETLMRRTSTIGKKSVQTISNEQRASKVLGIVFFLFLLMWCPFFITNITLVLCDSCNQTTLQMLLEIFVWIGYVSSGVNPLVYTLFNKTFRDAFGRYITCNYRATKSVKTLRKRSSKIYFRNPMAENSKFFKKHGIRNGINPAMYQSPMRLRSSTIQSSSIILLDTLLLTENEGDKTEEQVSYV

SMILES	Ki [1]	Ki [2]
Clc1cccc(N2CCNCC2)c1 [mCPP]	59 nM	–
CCNC(C)Cc1cccc(C(F)(F)F)c1 (stereo not drawn) [NSC_3337]	3180 nM and 6250 nM and 3420 nM	–
O=c1n(CCCN2CCN(c3cccc(Cl)c3)CC2)nc2ccccn12 [2-{3-[4-(3-chlorophenyl)piperazin-1-yl]propyl}[1,2,4]triazolo[4,3-a]pyridin-3(2H)-one]	402 nM	–
CC(C)(N)Cc1ccccc1 [2-methyl-1-phenylpropan-2-amine]	> 10000 nM	> 10000 nM
CC[C@@H](CO)NC(=O)[C@@H]1C=C2c3cccc4[nH]cc(c34)C[C@H]2N(C)C1 [Methylergometrine]	–	0.49 nM
CC[C@@H](CO)NC(=O)[C@@H]1C=C2c3cccc4c3c(cn4C)C[C@H]2N(C)C1	1.8 nM	–
CN1C[C@H](C(=O)N[C@]2(C)O[C@@]3(O)[C@@H]4CCCN4C(=O)[C@H](Cc4ccccc4)N3C2=O)C=C2c3cccc4[nH]cc(c34)C[C@H]21 [12'-hydroxy-2'-methyl-5'alpha-(phenylmethyl)ergotaman-3',6',18-trione]	12 nM	3 nM
NCC[C@H](Oc1ccc(C(F)(F)F)cc1)c1ccccc1 [NORFLUOXETINE]	286 nM	5060 nM
C[C@H](N)Cc1cccc(C(F)(F)F)c1 [Norfenfluramine (+)]	557 nM and 324 nM and 814 nM	52.1 nM and 11.2 nM and 47.8 nM
